{"source": "patent US10213449B2", "about": "“Compositions and methods for treating medulloblastoma” (The Board of Trustees of the Leland Stanford Junior …, priority 2016, dated 2019)", "key": {"[1]": {"test_system": "Hh signaling in NIH 3T3 cells overexpressing GLI2 (HA-Gli2ΔN)", "assay": "RT-qPCR of Gli1 in NIH 3T3 cells expressing Gli2ΔN (epistasis study)", "type": "cell-based, mouse", "settings": "3T3 cells with forced expression of HA-Gli2ΔN", "source_text": "Epistasis studies were next performed to determine where in the hedgehog pathway CK2 acts. The effect of TBB was examined: (i) in NIH 3T3s stimulated with SAG, a SMO agonist, (ii) in Sufu−/− mouse embryonic fibroblasts (MEF), and (iii) in NIH 3T3 cells overexpressing GLI2 (FIG. 3d-3f).\nSufu^−/− MEFs (conditional deletion of exons 4-8) were kindly provided by Pao-Tien Chang (UCSF). SAG (S7779), GDC-0449 (Vismodegib, S1082) and CX-4945 (Silmitasertib, S2248) was purchased from SelleckChem.com. TBB was purchased from EMD (218697). Shh-N conditional medium was made using a HEK 293 cell line that stably secretes ShhN as previously described. Myc-GL12-DN (17649, pCS2-MT-GLI2-deltaN) plasmid was purchased from Addgene (Cambridge, Mass., USA). […]\nNIH3T3s or SUFU−/− MEFs were plated in 6 well plates at 400,000 cells/well in 10% FBS media constituted of DMEM (Invitrogen11960-069) supplemented with 10% FBS (Hyclone Labs SH30070.02), pen/strep (Life Technologies 15140-122), sodium pyruvate (Invitrogen 11360-070) and glutamax (Invitrogen 35050-061). […] RNA was quantified on a nanodrop spectrophotometer (nanoddrop technologies ND-2000C). Transcript quantification was performed using a TaqMan RNA-to-Ct 1-Step Kit (Life technologies, 4392656) and the Applied Biosystems 7500 RT-PCR system as per the manufacturer's instructions. […]"}, "[2]": {"test_system": "GNP proliferation / cerebellum", "assay": "CK2 inhibition in developing mouse (cerebellar development)", "type": "in vivo", "settings": "mice injected with TBB between P3-P7 (30 mg/kg IP bid)", "experimental": "The role of CK2 in cerebellar development was next investigated by injecting mice with the CK2 inhibitor TBB between P3-P7 (FIG. 2e).\nMath1/nGFPtransgenic mice^8 were treated with DMSO or TBB (30 mg/kg IP bid) (EMD 218697) from […] then sacrificed 6 h following their final treatment. Brains were dissected, fixed in 4% PFA overnight then transferred into 20% sucrose for 24 h. Sections were mounted in O.C.T and sectioned at 20 μm then air-dried for 20 min prior to storing at −20° C. for up to 2 months. Sections were blocked in 0.2% triton X-100 and 2% goat serum diluted in sterile PBS for 1 h at RT. Primary antibodies used were: anti-NeuN Ab (1:200, COT: 2459079, EMD Millipore), anti-Tag1 Ab (1:100, antibody derived in the Scott lab) and TUNEL staining as per manufacturers instructions (Roche In situ Cell Death Detection Kit, cat. no. 1 684 809). All sections were incubated in primary antibody overnight at 4° C. and counter-stained with Hoechst33258 (final concentration 1 μl/ml in PBS) at RT for 10 min. Images were taken on a Leica TCS SP8 confocal microscope. Images were randomized and all measurements (length, width, Atoh-1, Tag1, TUNNEL staining) were performed by a blinded collaborator. Cerebellar folia length was compared between matched sections of control and treated mice by measuring the maximal length from the mid-base to the tip of the culmun (lobule 4/5). Culmen width was measured […] from the base of the folia between lobules 5 and 6. Prism statistical analysis software was used (GraphPad Software, CA) to calculate significance as determined by two-tailed T-tests."}, "[3]": {"test_system": "Ptch+/−; Tpr53−/−; SmoD477G MB flank allografts", "assay": "Flank allograft study, SMO inhibitor-resistant MB", "type": "in vivo, mouse", "experimental": "In vivo efficacy studies were performed in accordance with protocols approved by the Institutional Animal Care and Use Committee at Stanford University. SmoWT-MB and Smo[…]-MB cells isolated from either parental SmoWT or Smo[…] mouse Ptch^+/-; p53^-/- MB hind-flank allografts were kindly provided by Charles Rudin (Memorial Sloan-Kettering Cancer Center). Ptch+/-; Tpr53-/-, or, Ptch+/-; Tpr53-/-; Smo[…] MB cells were mixed 1:1 with matrigel and 10^7 cells were injected into both flanks of a Nu/Nu mouse. Once tumors reached 225-275 mm^3, mice were randomized to treatment vs. control groups. Treatment groups received 30 mg/kg IP BID of TBB (reconstituted in DMSO at 50 ug/uL), or 37.5 mg/kg IP BID of GDC-0449 (reconstituted in DMSO at 62.5 ug/uL). Control mice were treated with an equivalent volume of DMSO. Corn oil was used in all groups to a total volume of 180 uL/injection and all doses were given with a 28 g insulin syringe. Tumors were measured and mice were weighed daily. Once tumors reached 1.5 cm^2 or met institutional euthanasia criteria, mice were sacrificed and tumors were harvested. Growth curves were generated using GraphPad Prism and significance was measured by two-way ANOVA."}, "Hh signaling in GNPs": {"test_system": "Hh signaling in GNPs", "assay": "Transcript levels in GNPs following Hh stimulation", "type": "cell-based, mouse"}}, "note": "“Also recorded” adds a separate entry of the source."}
{"smiles": "Brc1c(Br)c(Br)c2[nH]nnc2c1Br", "note": "[TBB, 4,5,6,7-tetrabromo-2H-benzotriazole]", "values": [{"measurement": "Gli1 mRNA levels", "setting": "[1]", "value": "inhibited; also recorded: dose dependent loss of Gli1 expression"}, {"measurement": "GNP-dependent foliary width", "setting": "[2]", "value": "decrease"}, {"measurement": "apoptosis", "setting": "[2]", "value": "no significant change"}, {"measurement": "cerebellar size", "setting": "[2]", "value": "decrease"}, {"measurement": "foliary length", "setting": "[2]", "value": "no significant change"}, {"measurement": "number of ATOH-1 positive proliferating GNPs", "setting": "[2]", "value": "decrease"}, {"measurement": "rate of differentiation", "setting": "[2]", "value": "no significant change"}, {"measurement": "tumor growth of SmoD477G MB flank allografts", "setting": "[3]; TBB 30 mg/kg IP BID or GDC-0449 37.5 mg/kg IP BID vs vehicle control", "value": "near-complete cessation of tumor growth; also recorded: significant response"}, {"measurement": "BrdU incorporation in flank allografts", "setting": "[3]; following TBB administration, relative to GDC-0449 and control treated mouse", "value": "Decreased"}, {"measurement": "Gli1 transcript levels", "setting": "Hh signaling in GNPs", "value": "no change"}, {"measurement": "Gli2 transcript levels", "setting": "Hh signaling in GNPs", "value": "effective at decreasing"}, {"measurement": "Ptch transcript levels", "setting": "Hh signaling in GNPs", "value": "effective at decreasing"}]}
